Results on eight molecules are retold here after PubChem BioAssay (NCI).

Where “and” joins values, the source holds several entries; their conditions need not be identical. Equal values may be shown once.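 96-well plates; 48 h exposure; 5 concentrations. Endpoints by linear interpolation between flanking doses. Not reached: highest tested concentration assigned. The concentration for 50% growth inhibition is given as GI50. The concentration for full growth arrest is given as TGI.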

Experiment in all cases: DTP human tumour cell line panel, 48 h
Assay [1] deals with RXF 393 renal.
Assay [2] deals with MDA-MB-435.
The test system of assay [3] is CAKI-1 renal.
Assay [4] deals with SR leukemia.
Assay [5] relates to MALME-3M melanoma.
Assay [6] deals with MOLT-4 leukemia.
Assay [7] deals with OVCAR-8 ovarian.
Assay [8] relates to NCI-H522 lung.
The subject of assay [9] is K-562 leukemia.
Assay [10] relates to HCT-116 colon.

In general, GI50 refers to the concentration that inhibits growth by half. The term TGI denotes the concentration at which net growth stops. A higher TGI goes with lower sensitivity of the cells. On to `O=C(c1ccccc1)c1ccc(O)c2ncccc12`, for which the GI50 was 3.18 µM in assay [1]; 6.13 µM in assay [2]; 1.13 µM in [3]; 1.15 µM in [4]; 5.1 µM in assay [5]; 3.16 µM in assay [6]. In addition, the GI50 in assay [7] was 4.08 µM; in assay [8], 2.51 µM; in assay [9], 3.4 µM; in assay [10], 2.62 µM. The TGI in assay [1] is 19.6 µM; in assay [2], 97.5 µM; in assay [3], 6.3 µM; in assay [4], above 100 µM; in assay [5], 46.4 µM; in assay [6], above 100 µM. Besides, the TGI in assay [7] was 41 µM; in [8], 8.3 µM; in assay [9], above 100 µM; in assay [10] it was 10.3 µM.
On to `CC1=C/C(O)CC(=O)Cc2nc(co2)C(=O)N2CCC=C2C(=O)OC(C(C)C)C(C)/C=C\C(=O)NC/C=C\1` (configuration not stated), for which the GI50 was 27.8 µM in [1]; 20.3 µM in assay [2]; 44.4 µM in assay [3]; above 100 µM in assay [4]; 23.1 µM in [5]; 8.54 µM in assay [6]. Moreover, the GI50 is 24.8 µM in assay [7], 15.2 µM in assay [8], above 59.5 µM in assay [9] and 3.63 µM in assay [10]. Besides, the TGI in [1] was above 100 µM; in assay [2], > 94.2 µM and 80.4 µM; in assay [3], > 84.1 µM and 70.1 µM; in assay [4] it was > 100 µM and 44.6 µM; in assay [5], > 65.9 µM and 25.2 µM; in assay [6], > 32.6 µM and 53.5 µM. Further, the TGI in assay [7] is > 100 µM and 35 µM; in assay [8], > 65.6 µM and 11.8 µM; in assay [9], above 100 µM; in assay [10], 14.8 µM and 28.1 µM.
Take `O=C(Nc1nc(-c2ccccc2)cs1)c1cc(O)c(O)c(O)c1`: the GI50 in [1] was 3.55 µM; in assay [2], 5.59 µM; in [3], 1.42 µM; in assay [4], 1.62 µM; in assay [5] it was 8.86 µM; in assay [6], 1.57 µM. Moreover, the GI50 in assay [7] was 3.38 µM; in assay [8], 0.337 µM; in assay [9], 2.72 µM; in [10], 2.97 µM. Also, the TGI stood at 19.7 µM in assay [1]; 56.2 µM in assay [2]; 16.6 µM in assay [3]; 19.9 µM in assay [4]; 71.1 µM in assay [5]; 19.4 µM in assay [6]. Besides, the TGI in [7] is above 100 µM; in assay [8], 1.23 µM; in assay [9], above 100 µM; in [10] it was 16.5 µM.
Regarding `NC(=S)N/N=C/c1ccc(OC(=O)COc2ccccc2)cn1`, the GI50 in [1] was 5.34 µM; in [2], 10.9 µM; in [3], 4.01 µM; in [4], 0.596 µM; in assay [5] it was 11.2 µM; in [6], 2.53 µM. Also, the GI50 in assay [7] is 3.26 µM; in assay [8] it was 8.6 µM; in [9], 2.88 µM; in assay [10], 5.98 µM. Moreover, the TGI in assay [1], in [2], in assay [3], in assay [4], in assay [5] and in [6] was above 100 µM each time. In addition, the TGI in assay [7] is above 100 µM; in assay [8], 57.2 µM; in [9] it was above 100 µM; in [10], above 100 µM.
Regarding `C[C@@H]1CC[C@@H]2[C@@H]1[C@H](OC(=O)c1ccc3ccccc3c1)[C@]1(C3CCCCC3)C[C@@H](OC(=O)CO)[C@@]2(C)O1`, the GI50 is 0.0702 µM in assay [1]; 14.1 µM in [2]; 0.0391 µM in assay [3]; 3.4 µM in [4]; 16.5 µM in [5]; 5.16 µM in assay [6]. For the same molecule, the GI50 in assay [7] is 5.62 µM; in assay [8] it was 10.3 µM; in assay [9], 11.4 µM; in assay [10] it was 6.46 µM. The TGI in [1] is 8.25 µM; in assay [2], 29.4 µM; in assay [3] it was 10.9 µM; in assay [4], 14.4 µM; in [5] it was 32.3 µM; in [6] it was 21.3 µM. Further, the TGI in assay [7] stood at 26.5 µM; in [8], 24.1 µM; in assay [9] it was 40.9 µM; in assay [10], 19.6 µM.
For the molecule `c1ccc2c(-c3cnn4cc(-c5ccc(N6CCNCC6)cc5)cnc34)ccnc2c1`, the GI50 in [1] is 1.04 µM; in assay [2] it was 0.556 µM; in assay [3], 1.35 µM; in assay [4], 0.153 µM; in [5], 1.34 µM; in [6], 0.885 µM. The GI50 in assay [7] is 1.45 µM; in assay [8] it was 1.5 µM; in assay [9] it was 0.226 µM; in assay [10], 0.313 µM. In addition, the total growth inhibition concentration (TGI) worked out at 2.45 µM in [1]; 1.91 µM in assay [2]; 2.77 µM in [3]; 0.562 µM in assay [4]; 2.92 µM in assay [5]; 2.34 µM in assay [6]. Also, the TGI in assay [7] is 3.05 µM; in assay [8], 2.9 µM; in assay [9], 0.696 µM; in assay [10], 1.19 µM.
On to `Clc1ccc(-c2nc(C(Cl)Cl)nc3cc(-c4ccccc4)nn23)cc1`, for which the GI50 was 0.813 µM in assay [1]; 1.8 µM in [2]; 0.645 µM in assay [4]; 2 µM in assay [5]; 1.74 µM in assay [6]; 1.44 µM in [7]. The values for the GI50 in assay [8], in assay [9] and in assay [10] were 1.52 µM, 1.81 µM and 1.67 µM, respectively. Besides, the TGI in assay [1] was 1.87 µM; in assay [2] it was above 50 µM; in assay [4], 3.94 µM; in [5], above 50 µM; in assay [6], above 50 µM; in assay [7], above 50 µM. For the same molecule, the TGI in [8], in assay [9] and in [10] was above 50 µM throughout.
Regarding `COC(=O)C1=CO[C@@H](OC2OC(CO)C(O)C(O)C2O)[C@@H]2[C@H](C)[C@@H](O)[C@@H](O)[C@]12O` (some centres not stated), the concentration for total growth inhibition (TGI) in [1], in assay [2], in [3], in assay [4], in assay [5] and in [6] was above 100 µM in each case. Further, the TGI in assay [7], in assay [8] and in assay [10] was above 100 µM in each case.
